Test results: US20180171411A1, “GFRalpha1 AS A BIOMARKER FOR CISPLATIN-INDUCED CHEMORESISTANCE AND METASTASIS” (THE BOARD OF REGENTS OF THE UNIVERSITY OF TEXAS SYSTEM, priority 2015, published 2018)

Test system: GFRα1-overexpressing MG-63 cells
Assay: WST-1 cell viability of GFRα1-overexpressing osteosarcoma cells
Format: cell-based, human
Procedure: FIG. 3. GFRα1-induced autophagy enhances the chemoresistance of osteosarcoma cells induced by cisplatin. (a) Control and GFRα1-deficient MG-63 cells were transiently transfected with a mRFP-GFP tandem fluorescent-tagged LC3 (mRFP-GFP-LC3) vector and then treated with cisplatin (20μM) for 24 hr. Left, representative images of RFP-LC3 and GFP-LC3 puncta. Scale bar, 20 μm. Right, quantitative analysis of the number of yellow puncta and the number of RFP-LC3 puncta in the combined images. The values are represented as a mean±s.d.m. (n=3). ** denotes p<0.05 by t-test. (b) Control and GFRα1-deficient MG-63 cells were treated with cisplatin (20 μM) for 24 hr and then stained with acridine orange. Top, representative images of cells stained with acridine orange. Scale bar, 20 μm. Bottom, quantitative analysis of the number of AVOs. The values are represented as a mean±s.d.m. (n=3). ** denotes p<0.05 by t-test. (c) Control and GFRα1-deficient MG-63 cells were treated with cisplatin (20 μM) for 24 hr and then analyzed by TEM. Top, representative images of autophagic vacuoles (yellow arrows) detected after cisplatin treatment in control MG-63 cells. Scale bar, 100 nm. Bottom, quantitative analysis of the number of autophagic vacuoles. The values are represented as a mean±s.d.m. (n=3). ** denotes p<0.05 by t-test. (d) Immunoblot analysis of control and GFRα1-overexpressing osteosarcoma cell lysates with antibodies specific for GFRα1, LC3 and β-actin. […] (e) Quantitative analysis of the number of yellow puncta and the number of RFP-LC3 puncta in control and GFRα1-overexpressing MG-63 cells. […] Bottom, quantitative analysis of the number of AVOs. […] (h) Control and GFRα1-overexpressing MG-63 cells were treated with cisplatin (20 μM) for 24 hr and then analyzed by TEM. Top, representative images of autophagic vacuoles detected after cisplatin treatment in control and GFRα1-overexpressing MG-63 cells. […] Bottom, quantitative analysis of the number of autophagic vacuoles. […] Cell viability was measured using the WST-1 assay. […] Cell viability was measured using the WST-1 assay. […]

| Molecule | increase of cell proliferation in GFRα1 overexpressing cells (with DMSO, 3-MA or Baf, then cisplatin 20 μM 24 hr) | GFRα1-mediated cell survival after cisplatin treatment (Cisplatin+GDNF (50 ng/ml), 24 h) |
| --- | --- | --- |
| Cn1cnc(N)c2ncnc1-2 [3-MA, 3-methyladenine] | blocked |  |
| GDNF: glial cell line-derived neurotrophic factor, the major ligand of GFRα1 (protein, UniProt P39905 78-211, looked up) Glial cell line-derived …: SPDKQMAVLPRRERNRQAAAANPENSRGKGRRGQRGKNRGCVLTAIHLNVTDLGLGYETKEELIFRYCSGSCDAAETTYDKILKNLSRNRRLVSDKVGQACCRPIAFDDDLSFLDDNLVYHILRKHSAKRCGCI |  | did not have an effect |
